Results as given in patent publication US20240043420A1, “7-AZAINDOLE COMPOUNDS FOR INHIBITION OF BCR-ABL TYROSINE KINASES” (EnLiven Therapeutics, Inc., priority 2020, published 2024).

Assays:
ABL1 = biological target: T1, ABL1 (Homo sapiens, UniProt P00519); experiment: Luminescence-based ABL kinase assay (ADP-Glo, 300 μM ATP); type: biochemical
T1 construct: purchased Carna Biosciences
Outline: (§1)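 ABL1 (3.325 nM in the enzyme solution) was preincubated with compound for 30 min at RT in HEPES pH 7.5 buffer with MgCl2, EGTA, DTT, BSA and Brij-35. Adding Peptide 2 and ATP (6 μM and 1.2 mM in the start solution) began a 90 min RT reaction. ADP-Glo luminescence gave % activity and IC50.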

pCRKL in K562 cells = experiment: pCRKL ELISA assay in K562 cells; type: cell-based; settings: Homo sapiens, 1.5 h, 90 minutes incubation, read-out: PCRKL ELISA, Cell Line IC50 (nM) K562
Experimental: (§2) K562 or Ba/F3 ABL T315I cells (2.0*10^5 cells/100 μl/well) were seeded in 96 well (Corning, cat #3799). Compounds were dissolved in DMSO, serially diluted in DMSO and then were added, mixed, and incubated for 90 minutes at 37° C., 5% CO2. Following the 90-minute incubation, plates were centrifuged for 5 min at 3000 RPM and supernatant was removed from each well. Cells were washed 3 times with 150 μl PBS prior to addition of 100 μl cell RIPA lysis buffer (Boston BioProducts, cat #BP-115D) supplied with 1×complete ULTRA cocktail inhibitor (Roche, 05892791001) and 1×PhosSTOP Phosphatase Inhibitor Cocktail Tablets (Roche, 04906837001). Cells were incubated with lysis buffer for 1 hour at 4° C. prior to storage at −80 C.
(§3) A capture antibody able to detect phosphorylated and non-phosphorylated CRKL (R&D Systems, cat #AF5127) was added to Meso Scale Discovery (MSD) standard bind plates (MSD, cat #L15XA-3) at 5 ug/mL and incubated at 4° C. overnight. The next day, plates were washed with PBS+0.05% Tween20 (PBST) and 150 μl of 5% BSA blocking solution was added for 1 hour at room temperature with shaking. Plates were washed with PBST. Lysates were thawed and 30 μl of lysate was added to the MSD plates and incubated for 2 hours at room temperature with shaking. MSD plates were washed with PBST and 30 μl of a detection antibody that binds phosphorylated pCRKL (R&D Systems, cat #MAB6910) was added at 1 μg/mL to each well. Plates were incubated for 1 hour at room temperature with shaking. Plates were washed with PBST prior to addition of 30 μl of a sulfo tagged goat anti mouse detection antibody (MSD cat #R32AC-1). Plates were incubated for 1 hour at room temperature with shaking. Plates were washed with PBST prior to addition of 150 ul of 1×MSD read buffer T (MSD, cat 4R92TC-2). Electrochemiluminescence (ECLU) was read on an MSD plate reader (Meso Scale Discovery). The remaining activity by calculated as follows: 00 Relative activity=100×(ELCUsample−ECLULC)/(ECLUHC−ECLULC). The low and high controls (LC/HC) are generated from lysate from wells without cells or with cells treated with 0.1% DMSO, respectively. IC50 values were calculated using XLFit software using a nonlinear regression model with a sigmoidal dose response and are shown in Table 4 and Table 5 below.

[1] = system: pCRKL in Ba/F3 ABL1 (T315I) cells; experiment: pCRKL ELISA assay in Ba/F3 ABL T315I cells; type: cell-based; settings: Mus musculus, BaF3, 1.5 h, 90 minutes incubation, read-out: pCRKL ELISA, Cell Line IC50 (nM) Ba/F3 ABL1 (T315I)
Experimental: as §2, §3

K562 cells = experiment: K562 cell proliferation assay (CellTiter-Glo); type: cell-based; settings: Homo sapiens, K562, 72 h, CellTiter-Glo viability, read-out: Cell Line (IC50, nM) K562
Outline: (§4)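 Cells in IMDM/10% FBS seeded at 2,000 (K562) or 1,500 (HL60) per well, exposed to serially diluted compounds for 72 h at 37 °C, 5% CO2. Viability by CellTiter-Glo luminescence, normalized between DMSO (high) and cell-free media (low) controls.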

ABL1 (T315I) = ABL1 (T315I) (Homo sapiens, UniProt P00519, T315I); experiment: Luminescence-based ABL kinase assay (ADP-Glo, 300 μM ATP), T315I mutant; type: biochemical
Outline: as §1

HL60 cells = experiment: HL60 cell proliferation assay (CellTiter-Glo); type: cell-based; settings: Homo sapiens, HL-60, 72 h, CellTiter-Glo viability, read-out: Cell Line (IC50, nM) HL60
Outline: as §4

| Compound | IC50 (ABL1) | IC50 (pCRKL in K562 cells) | IC50 [1] | IC50 (K562 cells) | IC50 (ABL1 (T315I)) | IC50 (HL60 cells) |
| --- | --- | --- | --- | --- | --- | --- |
| COc1ncccc1-c1c[nH]c2nc(NC(=O)[C@@H]3C[C@@H]3F)ccc12 [Compound 27, (1S,2S)-2-fluoro-N-(3-(2-methoxypyridin-3-yl)-1H-pyrrolo[2,3-b]pyridin-6-yl)cyclopropane-1-carboxamide] | 29 nM | 164 nM | 183 nM | 156 nM | 20.2 nM | > 10000 nM |
| COc1ccnc(OC)c1-c1c[nH]c2nc(NC(=O)[C@@H]3C[C@@H]3F)ccc12 [Compound 75, (1S,2S)—N-[3-(2,4-dimethoxypyridin-3-yl)-1H-pyrrolo[2,3-b]pyridin-6-yl]-2-fluorocyclopropane-1-carboxamide] | 15.1 nM | 86.3 nM | 162 nM | 54.6 nM | 17.6 nM | > 10000 nM |
| COc1c(-c2c[nH]c3nc(NC(=O)[C@@H]4C[C@@H]4F)ccc23)cc(F)c2[nH]cnc12 [Compound 95, (1S,2S)-2-fluoro-N-(3-(7-fluoro-4-methoxy-1H-benzo[d]imidazol-5-yl)-1H-pyrrolo[2,3-b]pyridin-6-yl)cyclopropanecarboxamide] | 6.32 nM | 656 nM | 429 nM | 221 nM | 2.14 nM | > 10000 nM |
| COc1ccccc1-c1n[nH]c2nc(NC(=O)[C@@H]3C[C@@H]3F)ccc12 [Compound 54, (1S,2S)-2-fluoro-N-[3-(2-methoxyphenyl)-1H-pyrazolo[3,4-b]pyridin-6-yl]cyclopropane-1-carboxamide] | 14.3 nM | 95.8 nM | 198 nM | 88.4 nM | 16.3 nM | > 10000 nM |
| COc1cc2ncsc2c(F)c1-c1c[nH]c2nc(NC(=O)[C@@H]3C[C@@H]3F)ccc12 [Compound 147, (1S,2S)-2-fluoro-N-(3-(7-fluoro-5-methoxybenzo[d]thiazol-6-yl)-1H-pyrrolo[2,3-b]pyridin-6-yl)cyclopropane-1-carboxamide] | 5.54 nM | 35.7 nM | 35.7 nM | 16.1 nM | 1.71 nM | > 10000 nM |
| COc1ccc(F)cc1-c1n[nH]c2nc(NC(=O)[C@@H]3C[C@@H]3F)ccc12 [Compound 98, (1S,2S)-2-fluoro-N-[3-(5-fluoro-2-methoxyphenyl)-1H-pyrazolo[3,4-b]pyridin-6-yl]cyclopropane-1-carboxamide] | 16.4 nM | 174 nM | 241 nM | 106 nM | 12.9 nM | > 10000 nM |

Further molecules by falling IC50 (ABL1), results first:

| IC50 (ABL1) | IC50 (pCRKL in K562 cells) | IC50 [1] | IC50 (K562 cells) | IC50 (ABL1 (T315I)) | IC50 (HL60 cells) | Compound |
| --- | --- | --- | --- | --- | --- | --- |
| 5.42 nM | 453 nM | 1460 nM | 40.5 nM | 1.73 nM | – | COc1cccc(OC)c1-c1c[nH]c2nc(NC(=O)C3CC3CN3CCNCC3)ccc12 (single isomer, unassigned) [Example S150, Enantiomer 1, N-[3-(2,6-dimethoxyphenyl)-1H-pyrrolo[2,3-b]pyridin-6-yl]-2-(piperazin-1-ylmethyl)cyclopropane-1-carboxamide] |
| 5.14 nM | 65.4 nM | 50.1 nM | 35.8 nM | 7.38 nM | > 10000 nM | COc1ncc(F)c(OC)c1-c1c[nH]c2nc(NC(=O)[C@@H]3C[C@@H]3F)ccc12 [Compound 76, (1S,2S)-2-fluoro-N-[3-(5-fluoro-2,4-dimethoxypyridin-3-yl)-1H-pyrrolo[2,3-b]pyridin-6-yl]cyclopropane-1-carboxamide] |
| 3.74 nM | 32 nM | 112 nM | 9.9 nM | 14 nM | > 10000 nM | COc1nc2ncsc2cc1-c1c[nH]c2nc(NC(=O)[C@@H]3C[C@@H]3F)ccc12 [Compound 146, (1S,2S)-2-fluoro-N-(3-[5-methoxy-[1,3]thiazolo[4,5-b]pyridin-6-yl]-1H-pyrrolo[2,3-b]pyridin-6-yl)cyclopropane-1-carboxamide] |
